In PMC9605770, “Molecular docking and antihypertensive effects of a novel angiotensin-I converting enzyme inhibitory peptide from yak bone” (Frontiers in Nutrition, 2022):
Read-outs that look alike come from different tables or passages of the source. Where a SMILES comes first, the peptide text is derived from it.

Tests used:
[1] = In vitro gastrointestinal digestion of the peptide; format: in vitro ADME
Protocol: Gastrointestinal digestion was evaluated according to the method of Dang et al. ([15]) and Mulet-Cabero et al. ([18]) with minor modification. Simulated gastric juice (pH 2.0) and simulated intestinal fluid mixture (pH 7.6) were added to peptide solution and incubated at 37°C for 2 h, respectively.

[2] = tested on: spontaneously hypertensive rats (SHRs); test: Antihypertensive effect in SHRs (tail-cuff SBP); format: in vivo, rat; conditions: oral, positive control group, 10 mg/kg BW, n = 6 per group
Protocol: The systolic blood pressure (SBP) changes in the SHRs were measured by the tail-cuff method to determine the antihypertensive effect of ser-ala-ser-val-ile-pro-val-ser-ala-val-arg-ala (SASVIPVSAVRA) in vivo. Twenty female SHRs, weighing 230 ± 15 g and the SBP exceeding 190 mmHg, were obtained from Beijing Vital River Laboratory Animal Technology Co., Ltd. (China).
The SHRs were free to eat and drink at 25 ± 4°C and a 40 ± 6% humidity. To get the rats to adapt to the environment, the systolic blood pressure was measured once a day for 1 week. After a week of adaptation, the SHRs were randomly divided into three groups with each group containing 6 SHRs: the control group (sterilized water), captopril group (10 mg/kg captopril BW), SASVIPVSAVRA (30 mg/kg SASVIPVSAVRA BW). The effect of ACE inhibitors on SBP were measured by the Softron BP non-invasive blood pressure monitor (Softron BP-2000, Tokyo, Japan) at 0, 2, 4, and 6 h after oral administration ([1]), The measurements were repeated five times, the recordings were reported as mean ± standard deviation (SD). All animal procedures used in this trial were approved by the Institutional Animal Care and Use Committee of Hangzhou Medical College (Approval No. ZJCLA-IACUC-20010014).

ACE = conditions: read-out: IC50 of ACE inhibition, cited from earlier work
Description: Therefore, it was meaningful to study the ACE inhibitory activity of SASVIPVSAVRA. || Generally, the presence of amino acids (Val, Ile) with hydrophobic branches would increase the ACE inhibitory activity ([26]). Therefore, the Val residue and Ile residue in SASVIPVSAVRA may contribute to the ACE activity of the peptide. […] The peptide SASVIPVSAVRA isolated from the yak bone hydrolysate also contained the tripeptide above-mentioned (VIP). The ACE inhibitory activity may also be due to the presence of ACE inhibitor VIP in its structure. Howev ...

[3] = molecular target: T1, angiotensin-converting enzyme (ACE) (UniProt P12822)
T1 sequence: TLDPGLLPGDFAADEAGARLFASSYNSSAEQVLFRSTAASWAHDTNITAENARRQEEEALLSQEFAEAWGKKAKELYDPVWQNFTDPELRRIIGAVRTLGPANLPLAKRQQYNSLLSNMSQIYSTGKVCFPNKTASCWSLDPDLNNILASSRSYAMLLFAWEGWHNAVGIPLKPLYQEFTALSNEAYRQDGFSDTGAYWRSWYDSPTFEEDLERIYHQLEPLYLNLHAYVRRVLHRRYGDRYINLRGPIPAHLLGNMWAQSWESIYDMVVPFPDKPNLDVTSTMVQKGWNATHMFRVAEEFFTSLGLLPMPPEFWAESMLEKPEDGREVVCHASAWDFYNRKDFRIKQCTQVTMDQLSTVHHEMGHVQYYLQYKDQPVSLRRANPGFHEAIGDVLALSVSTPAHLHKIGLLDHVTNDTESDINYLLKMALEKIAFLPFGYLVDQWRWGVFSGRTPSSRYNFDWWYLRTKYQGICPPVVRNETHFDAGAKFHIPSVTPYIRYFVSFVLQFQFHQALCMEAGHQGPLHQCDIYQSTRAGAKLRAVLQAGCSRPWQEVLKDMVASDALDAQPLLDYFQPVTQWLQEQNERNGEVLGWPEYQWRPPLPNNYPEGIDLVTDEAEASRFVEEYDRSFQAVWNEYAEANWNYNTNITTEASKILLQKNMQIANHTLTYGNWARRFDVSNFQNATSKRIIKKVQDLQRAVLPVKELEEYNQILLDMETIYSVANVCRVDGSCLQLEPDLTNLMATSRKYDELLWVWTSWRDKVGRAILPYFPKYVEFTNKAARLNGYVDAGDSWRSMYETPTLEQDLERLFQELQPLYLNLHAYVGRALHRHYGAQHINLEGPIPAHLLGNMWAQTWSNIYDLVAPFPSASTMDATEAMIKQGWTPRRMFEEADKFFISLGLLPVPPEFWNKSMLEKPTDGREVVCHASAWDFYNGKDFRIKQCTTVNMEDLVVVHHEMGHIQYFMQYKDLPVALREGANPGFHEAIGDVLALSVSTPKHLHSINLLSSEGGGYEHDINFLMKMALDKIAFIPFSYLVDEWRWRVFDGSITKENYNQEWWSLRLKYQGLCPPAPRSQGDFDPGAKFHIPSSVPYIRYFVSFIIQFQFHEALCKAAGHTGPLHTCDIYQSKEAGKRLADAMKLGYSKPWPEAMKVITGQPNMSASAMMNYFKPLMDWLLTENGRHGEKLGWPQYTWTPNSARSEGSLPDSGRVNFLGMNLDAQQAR

CC[C@H](C)[C@H](NC(=O)[C@@H](NC(=O)[C@H](CO)NC(=O)[C@H](C)NC(=O)[C@@H](N)CO)C(C)C)C(=O)N1CCC[C@H]1C(=O)N[C@H](C(=O)N[C@@H](CO)C(=O)N[C@@H](C)C(=O)N[C@H](C(=O)N[C@@H](CCCNC(=N)N)C(=O)N[C@@H](C)C(=O)O)C(C)C)C(C)C [SASVIPVSAVRA, ser-ala-ser-val-ile-pro-val-ser-ala-val-arg-ala] (H-SASVIPVSAVRA-OH)
Digestive stability (peak of parent peptide in digested samples) ([1]; simulated gastric juice pH 2.0 and simulated intestinal fluid pH 7.6, 37°C, 2 h each, MS (TIC chromatography)): easily digested

CC[C@H](C)[C@H](NC(=O)[C@@H](NC(=O)[C@H](CO)NC(=O)[C@H](C)NC(=O)[C@@H](N)CO)C(C)C)C(=O)N1CCC[C@H]1C(=O)N[C@H](C(=O)N[C@@H](CO)C(=O)N[C@@H](C)C(=O)O)C(C)C [SASVIPVSA] (H-SASVIPVSA-OH)
Metabolite found in the digestion sample ([1]; digestion of SASVIPVSAVRA, simulated gastric juice pH 2.0 and intestinal fluid pH 7.6, 37°C, peak area by MS): main metabolite

C[C@H](CS)C(=O)N1CCC[C@H]1C(=O)O [captopril]
Maximum reduction of systolic blood pressure [2]: 14.9%

IVVE
IC50 (ACE; reported peptides): 315 µM

QLLLQQ
IC50 (ACE; reported peptides): 75 µM

SGGSYADELVSTAK
IC50 (ACE; reported ACE peptide): 0.093 µM

SASVIPVSAVRA [ser-ala-ser-val-ile-pro-val-ser-ala-val-arg-ala (…)]
IC50 of ACE inhibitory activity (substrate HHL, HEPES buffer with 300 mM NaCl, pH 8.3, 37°C, HPLC) [3]: 54.2 μM
